Values of other authors as cited in patent US20170119792A1, “METHODS AND COMPOSITIONS FOR DERMATOLOGICAL USE COMPRISING CLOBETASOL AND HALOBETASOL AND BIOPOLYMERS” (APEX LABORATORIES PRIVATE LIMITED, priority 2015, published 2017).

SMILES | solubility in water
CCC(=O)O[C@]1(C(=O)CCl)[C@@H](C)C[C@H]2[C@@H]3CCC4=CC(=O)C=C[C@]4(C)[C@@]3(F)[C@@H](O)C[C@@]21C [Clobetasol propionate, (11β, 16β)-21-chloro-9-fluoro-11-hydroxy-16-methyl-17-(1-oxopropoxy)-pregna-1,4-diene-3, 20-dione] | insoluble in water
CCC(=O)O[C@]1(C(=O)CCl)[C@@H](C)C[C@H]2[C@@H]3C[C@H](F)C4=CC(=O)C=C[C@]4(C)[C@@]3(F)[C@@H](O)C[C@@]21C [Halobetasol propionate, 21-chloro-6α, 9-difluoro-11β, 17-dihydroxy-16β-methylpregna-1,4-diene-3, 20-dione17-propionate] | insoluble in water
